# According to patent US20240417410A1, “TRICYCLIC COMPOUNDS FOR THE TREATMENT OF CANCER” (Hoffmann-La Roche Inc., priority 2023, published 2024):
# What was measured:
# SW620 cells (KRAS G12V) = assay: Cell viability assay (Cell Counting Kit-8, 3-day); format: cell-based, human; settings: Homo sapiens, SW-620; SW620, 72 hrs incubation
# Procedure, shortened: (§1)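 Read-out is CCK-8 absorbance (OD450 minus OD650, 2 hrs after reagent), reflecting NADPH after 72 hrs of compound exposure in 0.5% DMSO. Seeding density was 5,000 cells/well for NCI-H358 and 2,000 for AGS and SW620. IC50 derived by 4-parameter sigmoidal fitting.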
# [1] = tested on: NCI-H358 cells (KRAS G12C); assay: Cell viability assay (Cell Counting Kit-8, 3-day); format: cell-based, human; settings: Homo sapiens, NCI-H358, 72 h, NCI-H358, 72 hrs incubation
# Procedure, shortened: as §1
# AGS cells (KRAS G12D) = assay: Cell viability assay (Cell Counting Kit-8, 3-day); format: cell-based, human; settings: Homo sapiens, 72 h, 72 hrs incubation
# Procedure, shortened: as §1
# KRAS G12C-BRAF complex = KRAS G12C-BRAF complex (Homo sapiens (Human), UniProt P01116+P62937, G12C); assay: KRAS-BRAF with CYPA (500 nM) interaction assay (TR-FRET, Example 136); format: biochemical; settings: KRAS G12C-BRAF disruption
# KRAS G12C-BRAF complex, sequence (P01116-2 other isoform, or with tags, fused parts or gaps G12C): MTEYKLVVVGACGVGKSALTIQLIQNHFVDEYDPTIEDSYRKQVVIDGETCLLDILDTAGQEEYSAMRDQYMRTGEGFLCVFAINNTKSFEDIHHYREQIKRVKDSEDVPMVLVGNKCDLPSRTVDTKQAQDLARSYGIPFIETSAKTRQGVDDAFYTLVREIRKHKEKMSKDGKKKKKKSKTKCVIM
# KRAS G12C-BRAF complex, sequence (P62937 whole entry): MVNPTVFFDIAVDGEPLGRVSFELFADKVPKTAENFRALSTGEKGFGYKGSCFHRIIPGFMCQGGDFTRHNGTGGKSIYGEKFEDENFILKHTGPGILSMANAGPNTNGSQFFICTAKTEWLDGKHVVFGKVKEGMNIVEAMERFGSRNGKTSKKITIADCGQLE
# [2] = tested on: phosphorylation of ERK, KRAS G12V in SW620; assay: pERK inhibition assay; format: cell-based; settings: Homo sapiens, SW-620, 4 h, SW620 cells
# Procedure, shortened: (§2)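 Phospho-ERK quantified by in-cell ELISA with TMB read-out at OD450 following 4 h compound exposure (final 0.5% DMSO). Cell lines were SW620 (KRAS G12V), AGS (G12D) and NCI-H358 (G12C), grown in RPMI-1640 with 10% FBS. A 4-parameter sigmoidal model gave the IC50.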
# [3] = tested on: phosphorylation of ERK, KRAS G12D in AGS cells; assay: pERK inhibition assay; format: cell-based; settings: Homo sapiens, AGS, 4 h
# Procedure, shortened: as §2
# [4] = tested on: phosphorylation of ERK, KRAS G12C in NCI-H358 cells; assay: pERK inhibition assay; format: cell-based; settings: Homo sapiens, NCI-H358, 4 h
# Procedure, shortened: as §2
Compound,IC50 (SW620 cells (KRAS G12V)) [nM],IC50 [1] [nM],IC50 (AGS cells (KRAS G12D)) [nM],IC50 (KRAS G12C-BRAF complex) [nM],IC50 [2] [nM],IC50 [3] [nM],IC50 [4] [nM]
"CO[C@@H](C)c1ncc(N2CCN(C)CC2)cc1-c1c2c3cc(cc4c3n1CC(F)(F)C4)-c1csc(n1)C[C@H](NC(=O)[C@H]1C[C@@H]1C)C(=O)N1CCC[C@H](N1)C(=O)OCC(C)(C)C2 (atropisomer, axis not shown; (M)) [Example 18, (1S,2S)-N-[(7S,13S)-23,23-difluoro-(20M)-20-[2-[(1S)-1-methoxyethyl]-5-(4-methylpiperazin-1-yl)-3-pyridyl]-17,17-dimethyl-8,14-dioxo-15-oxa-4-thia-9,21,30,31-tetrazahexacyclo[23.3.1.1^2,5.1^9,13.0^19,27.0^21,26]hentriaconta-1 (28),2,5 (31),19,25 (29),26-hexaen-7-yl]-2-methyl-cyclopropanecarboxamide]",2.9,18,54.5,14.7,7.4,7.7,16.8
"CO[C@@H](C)c1ncc(N2CCN(C)CC2)cc1-c1c2c3cc(cc4c3n1CC(F)(F)C4)-c1csc(n1)C[C@H](NC(=O)[C@H]1C[C@@H]1c1cncnc1)C(=O)N1CCC[C@H](N1)C(=O)OCC(C)(C)C2 (atropisomer, axis not shown; (M)) [Example 95]",1.3,4,8.7,13.7,0.4,3.4,0.5
"CO[C@@H](C)c1ncc(N2CCN(CC(F)(F)F)CC2)cc1-c1c2c3cc(cc4c3n1CCO4)-c1csc(n1)C[C@H](NC(=O)[C@H]1C[C@@H]1C(F)F)C(=O)N1CCC[C@H](N1)C(=O)OCC(C)(C)C2 (atropisomer, axis not shown; (M)) [Example 11, (1S,2S)-2-(difluoromethyl)-N-[(7S,13S)-(20M)-20-[2-[(1S)-1-methoxyethyl]-5-[4-(2,2,2-trifluoroethyl)piperazin-1-yl]-3-pyridyl]-17,17-dimethyl-8,14-dioxo-15,24-dioxa-4-thia-9,21,30,31-tetrazahexacyclo[23.3.1.1^2,5.1^9,13.0^19,27.0^21,26]hentriaconta-1 (28),2,5 (31),19,25 (29),26-hexaen-7-yl]cyclopropanecarboxamide]",2.4,18.8,38.4,12.4,0.8,2.9,5.1
"CO[C@@H](C)c1ncc(N2CCN3CCCC[C@@H]3C2)cc1-c1c2c3cc(cc4c3n1CCC4)-c1csc(n1)C[C@H](NC(=O)[C@H]1C[C@@H]1c1cccnc1)C(=O)N1CCC[C@H](N1)C(=O)OCC(C)(C)C2 (atropisomer, axis not shown; (M)) [Example 102, (1S,2S)-N-[(7S,13S)-(20M)-20-[5-[(9αR)-1,3,4,6,7,8,9,9a-octahydropyrido[1,2-a]pyrazin-2-yl]-2-[(1S)-1-methoxyethyl]-3-pyridyl]-17,17-dimethyl-8,14-dioxo-15-oxa-4-thia-9,21,30,31-tetrazahexacyclo[23.3.1.1^2,5.1^9,13.0^19,27.0^21,26]hentriaconta-1 (28),2,5 (31),19,25 (29),26-hexaen-7-yl]-2-(3-pyridyl)cyclopropanecarboxamide]",0.4,1.2,4.9,6.5,0.7,2,1.1
"CO[C@@H](C)c1ncc(N2CCN(C)CC2)cc1-c1c2c3cc(cc4c3n1CCO4)-c1csc(n1)C[C@H](NC(=O)[C@H]1[C@H](C)[C@@H]1C)C(=O)N1CCC[C@H](N1)C(=O)OCC(C)(C)C2 (atropisomer, axis not shown; (M)) [Example 45, (1r,2S,3R)-N-[(7S,13S)-(20M)-20-[2-[(1S)-1-methoxyethyl]-5-(4-methylpiperazin-1-yl)-3-pyridyl]-17,17-dimethyl-8,14-dioxo-15,24-dioxa-4-thia-9,21,30,31-tetrazahexacyclo[23.3.1.1^2,5.1^9,13.0^19,27.0^21,26]hentriaconta-1 (28),2,5 (31),19,25 (29),26-hexaen-7-yl]-2,3-dimethyl-cyclopropanecarboxamide]",0.2,1.8,3.6,14.1,0.2,2.1,0.6
"CO[C@@H](C)c1ncc(N2CCN(C)CC2)cc1-c1c2c3cc(cc4c3n1CCO4)-c1csc(n1)C[C@H](NC(=O)[C@@H]1[C@@H]3COC[C@@H]31)C(=O)N1CCC[C@H](N1)C(=O)OCC(C)(C)C2 (atropisomer, axis not shown; (M)) [Example 52, (1R,5S,6s)-N-[(7S,13S)-(20M)-20-[2-[(1S)-1-methoxyethyl]-5-(4-methylpiperazin-1-yl)-3-pyridyl]-17,17-dimethyl-8,14-dioxo-15,24-dioxa-4-thia-9,21,30,31-tetrazahexacyclo[23.3.1.1^2,5.1^9,13.0^19,27.0^21,26]hentriaconta-1 (28),2,5 (31), 19,25 (29),26-hexaen-7-yl]-3-oxabicyclo[3.1.0]hexane-6-carboxamide]",1.1,7,12,16.1,0.7,5.1,1.4
"CO[C@@H](C)c1ncc(N2CCN(C)CC2)cc1-c1c2c3cc(cc4c3n1CC(F)(F)C4)-c1csc(n1)C[C@H](NC(=O)[C@H]1C[C@@H]1c1cccnc1)C(=O)N1CCC[C@H](N1)C(=O)OCC(C)(C)C2 (atropisomer, axis not shown; (M)) [Example 92]",0.7,2.5,8.8,16,1,6,1.4
"CO[C@@H](C)c1ncc(N2CCN(C)CC2)cc1-c1c2c3cc(cc4c3n1CCC4)-c1csc(n1)C[C@H](NC(=O)[C@H]1C[C@@H]1c1cccnc1)C(=O)N1CCC[C@H](N1)C(=O)OCC(C)(C)C2 (atropisomer, axis not shown; (M)) [Example 56, (1S,2S)-N-[(7S,13S)-(20M)-20-[2-[(1S)-1-methoxyethyl]-5-(4-methylpiperazin-1-yl)-3-pyridyl]-17,17-dimethyl-8,14-dioxo-15-oxa-4-thia-9,21,30,31-tetrazahexacyclo[23.3.1.1^2,5.1^9,13.0^19,27.0^21,26]hentriaconta-1 (28),2,5 (31), 19,25 (29),26-hexaen-7-yl]-2-(3-pyridyl)cyclopropanecarboxamide]",0.3,1.2,5.2,10.3,0.6,2.7,0.8
"CO[C@@H](C)c1ncc(N2CCN(CC(F)(F)F)CC2)cc1-c1c2c3cc(cc4c3n1CCO4)-c1csc(n1)C[C@H](NC(=O)[C@H]1[C@H](C)[C@@H]1C)C(=O)N1CCC[C@H](N1)C(=O)OCC(C)(C)C2 (atropisomer, axis not shown; (M)) [Example 85, (1r,2S,3R)-N-[(7S,13S)-(20M)-20-[2-[(1S)-1-methoxyethyl]-5-[4-(2,2,2-trifluoroethyl)piperazin-1-yl]-3-pyridyl]-17,17-dimethyl-8,14-dioxo-15,24-dioxa-4-thia-9,21,30,31-tetrazahexacyclo[23.3.1.1^2,5.1^9,13.0^19,27.0^21,26]hentriaconta-1 (28),2,5 (31),19,25 (29),26-hexaen-7-yl]-2,3-dimethyl-cyclopropanecarboxamide]",1,9,13,18.8,0.6,5.6,1.7
